Measured values from PMC8329730 (Journal of medicinal chemistry, 2019).
Structures can show the parent of a compound that is named as a salt. Values belong to the compound of their own block, whether it stands above or below them.

How the values were obtained:
[1] = human liver microsome intrinsic clearance; conditions: human liver microsomes
LogD = format: physicochemical; conditions: pH 7.4
[2] = mouse PK, blood and brain, 10 mg/kg IP; format: in vivo; conditions: female, NMRI, whole blood
[3] = toxicity observed on dosing mice; format: in vivo, mouse; conditions: 50 mg/kg QD

- HLM Clint [1]: highly cleared
Compound: 1-((6aR,9aR)-4-(2-Aminopyrimidin-4-yl)-6a,7,8,9,9a,10-hexahydro-2H-cyclopenta[2,3][1,4]oxazepino[5,6,7-cd]indazol-2-yl)ethan-1-one [compound 49]

- logD (LogD): 4.1
Compound: c1ccc2c(c1)Nc1n[nH]c3cccc(c13)O2 [9a]

Compound: CCOc1cc(-c2ccnc(N)n2)cc2[nH]nc(N)c12 [57a, 6-(2-Aminopyrimidin-4-yl)-4-ethoxy-1H-indazol-3-amine formate]
- Tmax [2]: 15 to 30 min

Compound: Cn1nc2c3c(cc(-c4ccnc(N)n4)cc31)Oc1ccccc1N2 [compound 18, 4-(2-Methyl-2,11-dihydrobenzo[2,3][1,4]oxazepino[5,6,7-cd]indazol-4-yl)pyrimidin-2-amine]
- animals dying within 30 minutes of treatment [3]: 50%
- animals experiencing inflammation after dosing ([3]; resolved with time): 50%
- Tmax [2]: 15 to 30 min
